Tests used:
[1] = Plasma DOAC concentration in ADAGE patients (chromogenic anti-FXa assay for rivaroxaban and apixaban; anti-FIIa Hemoclot assay for dabigatran); assay type: in vivo, human; conditions: for DOAC concentration, range: ADAGE patients, reduced dose (regimens as E1)
Excerpt: (§1) ADAGE is an academic, prospective, observational multicenter study (NCT 02464488; for details, see Foulon-Pinto et al.). We recruited hospitalized patients from the university hospital’s geriatric department (Assistance Publique-Hôpitaux de Paris, Paris, France). […] The DOAC dose regimen was at the discretion of the physician. Exclusion criteria included any acute, unstable comorbid condition or an estimated life expectancy of a few weeks. Sampling (see below) and last DOAC intake times were recorded on a standardized request form. Sampling time points were at the discretion of the physicians over a period of 20 days following inclusion. Time points were classified according to the time elapsed from the last oral intake (T, hours) for patients receiving rivaroxaban. T1 to T4 corresponded to peak time (Tmax), and T20 to T24 corresponded to trough (Tmin). […] Physicians prospectively collected demographic, clinical, and laboratory data (including creatinine clearance [CrCl] calculated with the Cockcroft–Gault formula). The study was approved by the institutionnel Ethics Committee (Comité consultatif de protection des personnes pour la recherche biomédicale–Île-de-France-6–number 15.074bis). All participants gave written informed consent to participate in the study. Only patients for whom remaining plasma aliquots were available were included in the present study.
(§2) Tubes were sent to each centre’s laboratory within 2 hours after sampling and immediately double-centrifuged for 15 minutes at 2000 × g at 15 to 22 °C to obtain platelet-poor plasma. Plasma samples (500 μL aliquots) were stored at −80 °C prior to shipment on dry ice for central analysis (Haematology Laboratory, Hôpital Lariboisière). Plasma samples were thawed for 3 to 5 minutes in a 37 °C water bath just before testing.
Dedicated calibrations and controls were used. The lower limit of quantification was 20 ng/mL for the 3 assays.

[2] = tested on: fibrin clot formation; assay: Thrombodynamics-4D fibrinography in plasma samples from ADAGE patients on DOACs; assay type: in vivo, human; conditions: for CS (clot size at 30 minutes), median (IQR) / CS (clot size at 30 minutes), range / D (clot density), median (IQR) / D (clot density), range / Fibrinography Tlag (lag time), median (IQR) / Fibrinography Tlag (lag time), range / Initial rate of clot growth (Vi), median (IQR) / Initial rate of clot growth (Vi), range / Time to Tsp (spontaneous clotting), median (IQR) / Time to Tsp (spontaneous clotting), range: ADAGE patients, reduced dose (regimens as E1)
Excerpt: as §1, §2
(§3) The TD-4D assay was performed centrally using the Thrombodynamics analyzer system (Hemacore, Diapharma) with the TD-4D PLS dedicated kit (Hemacore, Diapharma). The system simultaneously measures spatiotemporal parameters of fibrin clot formation (fibrinography) and TG process (thrombography) in a thin layer of unstirred plasma. Briefly, 120 μL of platelet-poor plasma is added to a microcuvette containing corn trypsin inhibitor to prevent contribution of contact phase activation, then 5 μL of phospholipid solution (manufacturer’s reagent) is added. After incubation for 15 minutes at 37 °C in the Thrombodynamics device, the mixture is transferred to a second microcuvette containing calcium ions, and then immediately transferred to the measurement cuvette. Finally, the activator insert, whose surface is coated with immobilized tissue factor (100 pmol/m^2), is then transferred to the cuvette. The process of fibrin clot formation is recorded in a time-lapse video-microscopy mode using a dark-field light scattering method. Simultaneously, the system monitors TG by fluorimetry, based on the ability of thrombin to cleave a fluorogenic substrate, 7-amino-4-methylcoumarin (AMC) bound to a short amino acid sequence (Arg-Gly-Gly). The rate of AMC formation is proportional to local thrombin concentration. The microcuvette is maintained at 37 °C and is illuminated with red (625 nm) or ultra-violet (365 nm) light emitting diodes. Clot growth is detected with red light scattering, while AMC fluorescence is detected with UV. Scattered red light and fluorescence passing through the macro lens are recorded by a charge-coupled device system. Images under red and blue light are acquired once per minute. The whole analysis lasts 1 hour. The Thrombodynamics software (Hemacore, Diapharma) calculates parameters of spatiotemporal dynamics of fibrin clot formation and TG [40, 46]. […]

[3] = tested on: fibrin clot formation; assay: Thrombodynamics-4D fibrinography in pooled normal plasma (Cryocheck) spiked with DOACs; assay type: biochemical, human; conditions: 0 to 1000 nM, mainly at low DOAC concentrations
Experimental: (§4) Frozen pooled normal plasma samples (Cryocheck-Cryopep) were spiked with increasing concentrations of DOACs (0-450 ng/mL), as previously described. […] were kindly provided by Bristol Myers Squibb/Pfizer, Bayer Healthcare, and Boehringer Ingelheim, respectively.
The TD-4D assay was performed centrally using the Thrombodynamics analyzer system (Hemacore, Diapharma) with the TD-4D PLS dedicated kit (Hemacore, Diapharma). The system simultaneously measures spatiotemporal parameters of fibrin clot formation (fibrinography) and TG process (thrombography) in a thin layer of unstirred plasma. Briefly, 120 μL of platelet-poor plasma is added to a microcuvette containing corn trypsin inhibitor to prevent contribution of contact phase activation, then 5 μL of phospholipid solution (manufacturer’s reagent) is added. […] The process of fibrin clot formation is recorded in a time-lapse video-microscopy mode using a dark-field light scattering method. […] Clot growth is detected with red light scattering, while AMC fluorescence is detected with UV. Scattered red light and fluorescence passing through the macro lens are recorded by a charge-coupled device system. […]
(§5) The following fibrinography parameters were recorded (see Supplementary Table 1): (i) lag time (Tlag, minutes); (ii) initial rate of clot growth (Vi, μm/min); (iii) rate of clot growth (V, μm/min); (iv) clot size (CS, μm) measured at 30 minutes; (v) clot density (D, arbitrary units); (vi) time to spontaneous clotting (Tsp, minutes). The following thrombography parameters (at the near-activator area) were recorded (see Supplementary Table 1): (i) Tlag (minutes); (ii) time to thrombin peak (minutes); (iii) maximal thrombin concentration (ie, thrombin peak height, Cmax_ATG, AU/L); (iv) endogenous thrombin potential (ETP_ATG, AU⋅min/L); (v) stationary amplitude of moving peak of thrombin (Ast, AU/L); (vi) rate of thrombin peak propagation (μm/min; see Supplementary Videos 1–3).

[4] = tested on: thrombin generation; assay: Thrombodynamics-4D thrombography in plasma samples from ADAGE patients on DOACs; assay type: in vivo, human; conditions: for ETP (endogenous thrombin potential, ETP_ATG), median (IQR) / ETP (endogenous thrombin potential, ETP_ATG), range / Thrombin peak height (Cmax_ATG), median (IQR) / Thrombin peak height (Cmax_ATG), range / Thrombography Tlag (Lag_ATG), median (IQR) / Thrombography Tlag (Lag_ATG), range / Time to peak (Tmax_ATG), median (IQR) / Time to peak (Tmax_ATG), range: ADAGE patients, reduced dose (regimens as E1)
Excerpt: as §1, §2, §3

[5] = tested on: thrombin generation; assay: Thrombodynamics-4D thrombography in pooled normal plasma (Cryocheck) spiked with DOACs; assay type: biochemical, human
Experimental: as §4
as §3, with “minute.” for “minute. The whole analysis lasts 1 hour. The Thrombodynamics software (Hemacore, Diapharma) calculates parameters of spatiotemporal dynamics of fibrin clot formation and TG [40, 46].”
as §5

[6] = all ADAGE patient samples, any time point and dose
[7] = all ADAGE patient samples, Spearman
[8] = univariate analysis, Tmax, line marked Halving
[9] = univariate analysis, Tmin, line marked Halving

## COc1ccc(-n2nc(C(N)=O)c3c2C(=O)N(c2ccc(N4CCCCC4=O)cc2)CC3)cc1 [Apixaban]
[1]; Tmax (peak)
  DOAC concentration, range: 69 to 442 ng/mL
[1]; Tmin (trough)
  DOAC concentration, range: 20 to 240 ng/mL
[1]; [6]
  DOAC plasma concentration, lower end of range: < 20 ng/mL
  DOAC plasma concentration, upper end of range: 547 ng/mL
[2]; Tmax (peak)
  CS (clot size at 30 minutes), median (IQR): 1362 (1317-1698) μm
  CS (clot size at 30 minutes), range: 1134-1857 μm
  D (clot density), median (IQR): 25,340 (22,600-27,790) a.u.
  D (clot density), range: 14,090-34,880 a.u.
  Fibrinography Tlag (lag time), median (IQR): 1.3 (1.2-1.4) min
  Fibrinography Tlag (lag time), range: 0.9 to 2.3 min
  Initial rate of clot growth (Vi), median (IQR): 64.9 (60.9-74.2) μm/min
  Initial rate of clot growth (Vi), range: 56.1- 95.5 μm/min
  Time to Tsp (spontaneous clotting), median (IQR): 22.9 (12.1-31.1) min
  Time to Tsp (spontaneous clotting), range: 6.8 to 48.2 min
[2]; Tmin (trough)
  CS (clot size at 30 minutes), median (IQR): 1655 (1395-1780) μm
  CS (clot size at 30 minutes), range: 1170-2147 μm
  D (clot density), median (IQR): 25,470 (21,190-29,910) a.u.
  D (clot density), range: 15,530-37,550 a.u.
  Fibrinography Tlag (lag time), median (IQR): 1.1 (1.0-1.3) min
  Fibrinography Tlag (lag time), range: 0.7 to 1.8 min
  Initial rate of clot growth (Vi), median (IQR): 68.3 (64.8-76.2) μm/min
  Initial rate of clot growth (Vi), range: 54.6-88.8 μm/min
  Time to Tsp (spontaneous clotting), median (IQR): 23.0 (12.8-28.1) min
  Time to Tsp (spontaneous clotting), range: 6.8 to 46.7 min
[2]; all ADAGE patient samples
  Change of CS (clot size) with increasing concentrations: decreased
[2]; [7]
  Association of D (clot density) with DOAC concentration: not
  Relationship between time to spontaneous clot formation (Tsp) and DOAC levels: no relationship
[2]; [8]
  Effect of DOAC concentration at Tmax (βC.pic) on fibrinography initial velocity of clot formation: ≈ 0.02018%
[2]; [9]
  Effect of DOAC concentration at Tmin (βC.res) on fibrinography initial velocity of clot formation: ≈ 0.04558%
[3]
  Samples in which spontaneous clotting occurred: 14%
[4]; Tmax (peak)
  ETP (endogenous thrombin potential, ETP_ATG), median (IQR): 1698 (1280-1961) AU⋅min/L
  ETP (endogenous thrombin potential, ETP_ATG), range: 971-3095 AU⋅min/L
  Thrombin peak height (Cmax_ATG), median (IQR): 309 (240-395) AU/L
  Thrombin peak height (Cmax_ATG), range: 206-507 AU/L
  Thrombography Tlag (Lag_ATG), median (IQR): 0.3 (0.2-0.6) min
  Thrombography Tlag (Lag_ATG), range: 0.1 to 1.3 min
  Time to peak (Tmax_ATG), median (IQR): 2.1 (2.1-2.6) min
  Time to peak (Tmax_ATG), range: 1.2 to 4.6 min
[4]; Tmin (trough)
  ETP (endogenous thrombin potential, ETP_ATG), median (IQR): 1711 (1436-1978) AU⋅min/L
  ETP (endogenous thrombin potential, ETP_ATG), range: 924-2958 AU⋅min/L
  Thrombin peak height (Cmax_ATG), median (IQR): 325 (292-379) AU/L
  Thrombin peak height (Cmax_ATG), range: 158-511 AU/L
  Thrombography Tlag (Lag_ATG), median (IQR): 0.2 (0.2-0.6) min
  Thrombography Tlag (Lag_ATG), range: 0.1 to 1.0 min
  Time to peak (Tmax_ATG), median (IQR): 2.1 (2.1-2.1) min
  Time to peak (Tmax_ATG), range: 1.6 to 3.6 min
[4]; all ADAGE patient samples
  Change of ETP_ATG with increasing DOAC plasma concentrations: decreased
[4]; [8]
  Effect of DOAC concentration at Tmax (βC.pic) on thrombography peak height (PH): ≈ 0.07471%
[4]; [9]
  Effect of DOAC concentration at Tmin (βC.res) on thrombography peak height (PH): ≈ 0.1698%
[5]
  Change of Ast (stationary amplitude of thrombin moving peak) with increasing concentrations: decreased

Reference: article PMC12351382, “Fibrinography and thrombography (thrombodynamics-4D) in atrial fibrillation assessment of direct oral anticoagulants in geriatrics patients aged 80 years and older receiving direct oral anticoagulant therapy” (Research and Practice in Thrombosis and Haemostasis, 2025)
